This is an account of results in patent US9522891B2, “Pyridazine derivatives and use thereof as medicaments for treating microRNA viral infection” (INSTITUTE OF PHARMACOLOGY AND TOXICOLOGY ACADEMY OF …, priority 2010, dated 2016).

≈ marks a conversion by molar mass, not a printed value.

For one data set, the system named is rhinovirus (HRV). As to conditions: cited from earlier work.
Another data set has as its system HeLa cells. Description: Determination of the maximum nontoxic dose of the compound. The conditions noted are these: observed each 24 h for 3 days. It is filed as cell-based. The procedure:
The drug was dissolved in DMSO, diluted with cell maintenance medium by 20 times, then diluted stepwise by 2 times to form working solutions with different concentrations. HeLa cells were inoculated on 96-well plate in an amount of 10,000 (0.1 mL) per well, added with 0.1 mL maintenance medium, incubated at 37° C. in adherence manner, sucked to remove maintenance medium, replaced it with 0.2 mL of compound working solution, and maintenance medium was used as control. The growth of cell was observed each 24 h, for 3 days.

Data set [1] relates to rhinovirus 3 (HRV-3). Description: Prophylactic administration, cell protection from CPE. Type of data set: cell-based. As to conditions: 100 ng/ml, TCID50 about 100, 3 days.
Data set [2] has as its system rhinovirus 3 (HRV-3). The data set is described as follows: Therapeutic administration, cell protection from CPE. It is filed as cell-based.
Data set [3] relates to rhinovirus 3 (HRV-3). The data set is described as follows: Measurement of half effective concentration (therapy). As to conditions: Enterovirus, HRV3, HeLa cells, TCID50 about 100, 48 h, prevents 50% cells from CPE. Type of data set: cell-based.
In data set [4] the test system is rhinovirus 3 (HRV-3). Description: Measurement of inhibition index of compound. Type of data set: cell-based. The conditions noted are these: highest dilution times of viral inhibition/nontoxic limit dilution times. The procedure: The inhibition index of drug was calculated: inhibition index=highest dilution times of viral inhibition/nontoxic limit dilution times.

Data set [5] relates to rhinovirus 3 (HRV-3). The data set is described as follows: Maximum viral inhibition concentration. As to conditions: compound concentration giving 100% inhibition of TCID50 about 100; virus added in doubling manner. Type of data set: cell-based.
The conditions of data set [6]: Bioorg Med Chem. 2009, 17: 621-624; cited from earlier work.

In the case of `CCOc1ccc(OCCCN2CCN(c3ccc(Cl)nn3)CC2)cc1` [Example 1, 3-{4-[3-(4-ethoxylphenoxy)propyl]piperazin-1-yl}-6-chloropyridazine], the melting point is 125 to 127 °C.

With `CCOC(=O)c1ccc(OCCC2CCN(c3ccc(C)nn3)CC2)cc1` [Pirodavir], the “activity against rhinovirus (HRV)” value in the data set with rhinovirus (HRV) (in vivo and in vitro, literature) was “significant activity”.

`CC(C)c1ccc(OCCCN2CCN(c3ccc(Cl)nn3)CC2)cc1` [Example 4, 3-{4-[3-(4-isopropylphenoxy)propyl]piperazin-1-yl}-6-chloropyridazine]: the melting point is 125 to 127 °C.

Consider `CCOc1ccc(OCCN2CCN(c3cc(Cl)nnc3Cl)CC2)cc1` [Control 2, 3,6-dichloro-4-{4-[2-(4-ethoxylphenoxy)ethyl]piperazin-1-yl}pyridazine], for which the Maximum nontoxic dose in the data set with HeLa cells came out at 31.3 µg/mL. Also, the “protection effects in preventing phagocytosis (CPE)” value with rhinovirus 3 (HRV-3) [1] is given as “good protection effects”. In the data set with rhinovirus 3 (HRV-3) [2] (therapeutic administration condition), the protection effects result was “good protection effects”. In the data set with rhinovirus 3 (HRV-3) [2] (therapeutic administration, 100 ng/mL, TCID50 100, HeLa cells, 48 h), the Cell protection rate came to 100%. Besides, the EC50 with rhinovirus 3 (HRV-3) [3] amounted to 0.025 µg/mL (≈ 0.0629 µM). In addition, the Inhibition index with rhinovirus 3 (HRV-3) [4] is 1/625. In addition, the “Maximum inhibition virus titer” value in the data set with rhinovirus 3 (HRV-3) [5] is “≦200 TCID50”. Besides, the index of selectivity entry in the data set on rhinovirus (HRV) (Bioorg Med Chem. 2009, 17: 621-624) is given as “relatively high index of selectivity”. Also, in the data set with rhinovirus (HRV) (compared to Pirodavir, Bioorg Med Chem. 2009, 17: 621-624), the “inhibition activity to HRV” value is recorded as “activity comparable to Pirodavir”. Also, the toxicity entry in [6] was “relatively low toxicity”.

`Cc1ccc(OCCCN2CCN(c3ccc(Cl)nn3)CC2)cc1` [Example 2, 3-{4-[3-(4-methylphenoxy)propyl]piperazin-1-yl}-6-chloropyridazine] gave a melting point of 129 to 131 °C.

The molecule `COC(=O)c1ccc(OCCCN2CCN(c3ccc(Cl)nn3)CC2)cc1` [Example 5, 4-{3-[4-(6-chloropyridazin-3-yl)piperazin-1-yl]propoxy} benzoic acid methyl ester] gave a melting point of 128 to 130 °C.

Turning to `CCOC(=O)c1ccc(OCCCN2CCN(c3ccc(Cl)nn3)CC2)cc1` [Example 6, 4-{3-[4-(6-chloropyridazin-3-yl)piperazin-1-yl]propoxy}benzoic acid ethyl ester], the melting point lay within 125 to 127 °C.

The molecule `CCc1ccc(OCCCN2CCN(c3ccc(Cl)nn3)CC2)cc1` [Example 3, 3-{4-[3-(4-ethylphenoxy)propyl]piperazin-1-yl}-6-chloropyridazine] displayed a melting point of 123 to 125 °C.

What is called melting point is the temperature of the solid-liquid transition. One may read the EC50 as the concentration that produces a half-maximal response.
